Values of other authors in patent US20220265629A1, “TREATMENT OF SYSTOLIC DYSFUNCTION AND HEART FAILURE WITH REDUCED EJECTION FRACTION WITH THE COMPOUND (R)-4-(1-((3-(DIFLUOROMETHYL)-1-METHYL-1H-PYRAZOL-4-YL)SULFONYL)-1-FLUOROETHYL)-N-(ISOXAZOL-3-YL)PIPERIDINE-1-CARBOXAMIDE” (MyoKardia, Inc., priority 2019, published 2022).

Legend:
healthy volunteers = details: correlated with increase in SET; cited from earlier work
HFrEF = details: Teerlink et al.; cited from earlier work

COC(=O)N1CCN(Cc2cccc(NC(=O)Nc3ccc(C)nc3)c2F)CC1 [omecamtiv mecarbil]
ischemia at high doses (healthy volunteers): resulted in ischemia
troponin (HFrEF): Mild troponin elevation
